Experimental data reported in patent US7737140B2, “Therapeutic compounds” (Allergan, Inc., priority 2008, dated 2010).

Test system: lashes and adjacent hairs of the eyelids
Assay: Clinical observation of lashes and adjacent hairs in glaucoma patients treated with bimatoprost in one eye
Format: in vivo
Excerpt: In the course of treating patients having glaucoma, treatment may only be appropriate in one eye. […] The lash appearance on the lids of the treated eyes would have appeared quite attractive if it represented a bilateral phenomenon. As a result of its asymmetric nature, the long lashes on one side could be construed as disturbing from a cosmetic standpoint. A systemic examination was preformed as a result of the asymmetric phenomenon. It soon became apparent that this altered appearance was not an isolated finding. […] Definite differences could be identified to varying degrees in the lashes and adjacent hairs of all patients who were taking the drug on a unilateral basis for longer than 6 months.
The changes in the lashes were apparent on gross inspection in several patients once attention was focused on the issue. In those with light colored hair and lashes, the differences were only seen easily with the aid of the high magnification and lighting capabilities of the slit lamp biomicroscope. In the course of glaucoma follow-up examination, attention is generally immediately focused on the eye itself. As a result of the high power magnification needed only one eye is seen at a time and the eye is seen at a high enough power that the lashes are not in focus. […]

In the case of `CCNC(=O)CCC/C=C\C[C@@H]1[C@@H](/C=C/[C@@H](O)CCc2ccccc2)[C@H](O)C[C@@H]1O` [bimatoprost], the “hair growth in treated versus control areas” value (conclusion from multiple parameters of hair appearance in many subjects) is reported as “stimulated” and the “lashes in the treated eye compared with the non-treated eye” value (glaucoma patient treated with bimatoprost in only one eye) is reported as “longer, thicker, and fuller”.
